The test system of one test is hippocampal slice. Nature of the test: Epileptic hippocampal slice, 0% Mg+2-induced epilepsy. In kind it is cell-based, Sprague-Dawley albino rat. The note with it: Rattus norvegicus, 30 μM Compound No. 6, 0% Mg+2. The text has this:
Hippocampal slices (450 μ) were obtained from male Sprague-Dawley albino rats (100-325 g). The method of slice preparation has been detailed elsewhere [A. H. Ganong et al., Brain Res., 273, 170-174 (1983)]. Slices were stored in a humidified interface chamber at room temperature and bathed in artificial cerebrospinal fluid (ACSF) which contained (in mM): NaCl 124.0, KCl 5.0, KH2 PO4 1.0, NaHCOP3 26.4, CaCl2, 2.0, MgSO4 1.5 and D-glucose 10.0, and was equilibrated with 95% 02:5% CO2. When needed for study, slices were placed one at a time in a small submersion chamber maintained at 35° C. where they were continuously perfused at 1.0-2.0 ml/min. Fresh solutions reached the recording chamber within 20 seconds and the perfusate was completely changed over within a minute. Additional oxygen and stirring was provided by an air jet (95% O2 :5% CO2) directed at the surface of the ACSF. Standard electrophysiological techniques were employed. Extracellular recording electrodes were glass micropipettes filled with 2.0 M NaCl and broken back to 2.0 m.OMEGA. resistance. All recording was from the somatic region of CA1. […] Intracellular recording electrodes of 60-100 MQ resistance were filled with 2.5 M KAc. […] The Schaffer collateral/commissural fibers were stimulated with tungsten bipolar stimulating electrodes at a rate of 0.03 Hz. The resulting field EPSP (S/C-CA1 EPSP) and the DC potential were amplified by an Axoprobe 1 amplifier and were continuously monitored on a Tektronix 5111A storage oscilloscope and a Gould 2300 chart recorder with a Gould Waveform storage module. Epileptiform activity was induced by omission of Mg++ ions from the perfusate, which removes the Mg++ mediated voltage-dependent block of the NMDA. receptor [B. Ault et al., J. Physiol., 307, 413-428 (1980)], or by the addition of the GABA antagonist picrotoxin. Drugs were added to the perfusate and zero magnesium refers to solutions which contain no added magnesium. The amplitude of the stimulus evoked primary population spike was used to assess the effects of experimental manipulations on the efficacy of synaptic function.

Test [1] addresses T1, NMDA receptor (rat brain receptor expressed in Xenopus oocytes) (Rattus norvegicus, UniProt P35439).
T1 construct: PolyA+ RNA (mRNA) was extracted from adult male rat cortex; expressed in transfected cells; host or cells: Xenopus laevis oocytes microinjected with rat cortex poly(A)+ RNA
Briefly: Xenopus oocytes injected with rat cortex mRNA, blocking of glycine effects (voltage clamp). The note with it: 100 μM NMDA. In kind it is cell-based. As to the method:
PolyA+ RNA (mRNA) was extracted from adult male rat cortex using the refined guanidinium thiocyanate method developed by Han et al [J. H. Han et al., Biochemistry, 26, 1617-1625 (1987)] and the oligo (dT) cellulose chromatography procedure of Adiv and Leder [H. Aviv et al., Proc. Nat. Acad. Sci., 69, 1408-1412 (1972)]. Aliquots of mRNA (1.0 mg/ml water) were stored at -20° C.
Gravid adult female Xenopus laevis (Xenopus One, Ann Arbor, Mich. or NASCO, Ft. Atkinson, Wis.) were anaesthetized with 0.2% (w/v) Tricaine (3-amino benzoic acid ethyl ester; Sigma) and subjected to partial ovarectomy. Excised oocytes were then prepared and microinjected [N. W. Kleckner et al, Science 241 835-837 (1988)]. Oocytes were treated for one hour in Barth's solution (88.0 mM NaCl, 1.0 mM KCl, 2.4 mM NaHCO3, 0.41 mM CaCl2, 0.82 mM MgSO4, 10.0 μg/ml penicillin, 100.0 μg/ml streptomycin, 10.0 mM HEPES, pH 7.5) containing 1.5 mg/ml Neutral Protease (Beohringer Mannheim Biochemicals, Grade II). Oocytes were then placed in Barth's solution containing 100.0 mM sucrose and manually defolliculated with fine forceps. Defolliculated oocytes were then microinjected with approximately 50 ng of mRNA in Barth's solution at 16°-18° C.
Oocytes were assayed 2-8 days later for rat brain receptor expression via single electrode voltage. clamp (Axoclamp 2A, Axon Instruments) in a manner similar to that previously described [Kleckner et al, Id.]. […] Drugs were added to the perfusate and inward currents induced by agonist compounds were measured at peak steady state response. […] Antagonist compounds were perfused for a minimum of 3.0 minutes prior to subsequent agonist co-application. Data are expressed as percent maximal response (mean±S.E.M.). Half-maximal responses (EC50 's) and slopes for dose response data were determined from the least squares fit to the logistic regression equation.

Where two headings read alike, the source gives them in different places.

Consider `O=C(O)Cc1c(C(=O)O)[nH]c2cc(Cl)ccc12` [Compound No. 6, 2-carboxy-6-chloro-3-indoleacetic acid], for which the activity at 30 µM is 60% in the test with hippocampal slice (read-out: Burst duration), 97% with hippocampal slice (read-out: Primary population spike amplitude), 48% in the test on hippocampal slice (read-out: Spontaneous activity) and 70.1% in the test with hippocampal slice (read-out: Sum of additional population spike amplitude). Besides, the IC50 in test [1] (IC50, 0.1 μM Gly, 0.1 μM glycine) came out at 0.77 ± 0.12 µM; in test [1] (IC50, 1.0 μM Gly, 1.0 μM glycine) it was 3.2 ± 1.1 µM; in test [1] (IC50, 10 μM Gly, 10 μM glycine) it was 6.1 ± 3.2 µM.

As a reminder, the IC50 is the concentration needed to halve the response being measured. Lower therefore signals higher potency.
